# Laboratory results published in patent US20220332836A1, “A METHOD FOR PREVENTING HUMAN VIRUS ASSOCIATED DISORDERS IN PATIENTS” (NOVARTIS AG, priority 2019, published 2022).
# Legend:
# non-human primate CD40 = assay: Binding to non-human primate CD40
# Description: (§1) mAb1 binds to human CD40 with high affinity (Kd of 0.3 nM).
# [1] = system: Fcγ receptors (including CD16); assay: Fcγ receptor binding
# [2] = system: antibody-dependent cellular cytotoxicity or complement-dependent cytotoxicity; assay: ADCC / CDC mediation; format: cell-based
# Description: Currently, CFZ533/Iscalimab is in clinical development for inhibition of transplant organ rejection and therapy for autoimmune diseases.
# as §1
# human leukocytes = assay: rCD154-induced activation of human leukocytes; format: cell-based
# Description: as §1
# PBMC = assay: Induction of PBMC proliferation; format: cell-based
# Description: as §1
# [3] = system: monocyte-derived dendritic cells (DCs); assay: Cytokine production by monocyte-derived dendritic cells; format: cell-based
# Description: as §1
# [4] = system: T cell-dependent antibody responses (TDAR); assay: In vivo T cell-dependent antibody responses and germinal centers
# [5] = 13-week GLP rhesus monkey toxicity study; format: in vivo
# Description: (§2) Inflammatory lesions in the kidneys and lungs of 2 animals at 50 mg/kg were noted, and in one of the two animals, lesions in the eyes and trachea were also noted. […] In view of these inflammatory findings, the No Observed Adverse Effect Level (NOAEL) for the 13-week toxicity study was set at 10 mg/kg. […] The NOAEL derived from the 26-week cynomolgus monkey study is considered the most relevant for supporting the clinical dosing regimen.
# (§3) Adequate safety margin from preclinical toxicological studies: GLP toxicology studies to date have tested CFZ533 at (i) weekly s.c. dosing for 13 weeks at 10, 50, and 150 mg/kg (s.c. and i.v.) in rhesus monkeys, and (ii) weekly s.c. dosing for 26 weeks at 1, 50, and 150 mg/kg in cynomolgus monkeys.
# [6] = 26-week chronic toxicity study in cynomolgus monkeys; format: in vivo; conditions: for mean Cmax,ss: sc
# Description: as §2, §3
# In the 26-week toxicity study in cynomolgus monkey, at steady state, an average concentration of 8300 μg/mL (Cav,ss) was obtained after weekly dosing at 150 mg/kg (NOAEL).
# The 10 mg/kg i.v. regimen was expected to provide, throughout the entire treatment period (placebo-controlled and open-label, see FIG. 3), sustained plasma concentrations above 40 μg/mL, to anticipate for higher CD40 expression in tx patients, and incomplete PD effects in target tissue due to loss of target saturation.
# CD40 [7] = system: CD40; design: species or system cynomolgus monkeys; conditions: cynomolgus monkey, in vivo
# Description: (§4) In a PK/PD study in cynomolgus monkeys, the inflection point (about 10 μg/mL) in the PK profiles was associated with a drop of CD40 saturation, as determined in an independent lymphocyte target saturation assay. As such this inflection point is viewed as a marker for the level of saturation of CD40, and an evidence for target engagement. […] Monkeys were immunized with KLH three times (the first was about 3 weeks prior to dosing, the second was 2 weeks after mAb1 administration, and the third was after complete wash-out of mAb1). […]
# CD40 [8] = biological target: T1, CD40 (Macaca mulatta, UniProt A0ACM8QRX8); assay: KLH / tetanus toxoid immunization in rhesus monkeys; format: in vivo
# T1 construct: CD40 occupancy by mAb1 at plasma concentrations >40 μg/mL; endogenous in cells; host or cells: rhesus monkeys (in vivo)
# T1 sequence (A0ACM8QRX8 21-278): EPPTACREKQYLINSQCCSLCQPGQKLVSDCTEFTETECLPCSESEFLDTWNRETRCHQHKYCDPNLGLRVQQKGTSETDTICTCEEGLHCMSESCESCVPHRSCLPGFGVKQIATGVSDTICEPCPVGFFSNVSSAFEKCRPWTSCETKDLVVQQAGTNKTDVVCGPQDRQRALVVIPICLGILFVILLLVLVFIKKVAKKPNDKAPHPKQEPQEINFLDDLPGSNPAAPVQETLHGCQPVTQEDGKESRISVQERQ
# Description: as §4
# [9] = system: PBMC incubated with EBV supernatant; assay: EBV regression assay with PBMC; format: cell-based, human
# Description: Buffy coats from six healthy volunteers (18-001 to 18-006) were received from Blutspendezentrum Bern. Peripheral blood mononuclear cells (PBMC) were isolated using LeucoSep tubes following manufacturer's instructions, counted with TC20 and adjusted in cell culture medium (Medium, buffers and reagents). All conditions (see Table 3-2) were run in five replicates in 96-well U-bottom plates and contained 2×10^5 cells/well. PBMC were incubated for 10-15 minutes at 37° C. before adding cell culture medium containing EBV-supernatant and transferrin (see Medium, buffers and reagents). […] Cell pellets were stained and analyzed by flow cytometry (FACS staining procedure).
# In FIG. 1, the gating strategy is shown.
# [10] = in vivo
# Description: as §2
# whole blood cultures = whole blood cultures incubated for three days (Ristov 2018); cited from earlier work
# [11] = system: EBV-seropositive EBV-B cell/T cell co-cultures; assay: EBV-B cell/T cell co-culture, EBV-seropositive donors
# [12] = cynomolgus monkey, in vivo, 150 mg/kg
# [13] = 14 days, CsA 0.1, 1 μM, Belatacept 10, 50 μg/mL, CFZ533, hIgG1 10-200 μg/mL, vs medium+EBV
# [14] = 10-200 μg/mL, priming, recall, priming and recall, 11 days
substance,measurement,setting,value
"CFZ533: fully human monoclonal Fc-silent, non-depleting anti-CD40 antibody (IgG1/K); heavy chain SEQ ID NO: 9, light chain SEQ ID NO: 10",affinity for human and non-human primate CD40,non-human primate CD40,very similar affinities
same,binding to Fcγ receptors (including CD16),[1],does not bind
same,mediation of ADCC or CDC,[2]; listed as CFZ533/Iscalimab,incapable of mediating
same,mediation of ADCC or CDC,[2]; listed as mAb1,does not
same,rCD154-induced activation of human leukocytes,human leukocytes,inhibits
same,induction of PBMC proliferation,PBMC,does not induce
same,induction of cytokine production by monocyte-derived dendritic cells,[3],does not induce
same,established germinal centers (GCs),[4],can disrupt
same,primary and secondary T cell-dependent antibody responses (TDAR),[4],blocks
same,No Observed Adverse Effect Level (NOAEL),[5]; 13-week toxicity study,10 mg/kg
same,major toxicology findings,"[5]; weekly dosing 13 weeks at 10, 50, 150 mg/kg",did not reveal any major finding
same,average steady state plasma concentration with complete suppression of germinal centers in cortical B cell areas of lymph nodes,[6]; 1 mg/kg dose group,> 38 µg/mL
same,NOAEL,"[6]; 26-week, cynomolgus",150 mg/kg
same,adverse findings,"[6]; cynomolgus monkey, in vivo","no adverse, mAb1-related findings"
same,"average concentration at steady state (Cav,ss)",[6]; [12],8300 µg/mL
same,"systemic exposure (AUC, steady state) over a 1-month period",[6]; [12],232400 µg·days/mL
same,"mean Cmax,ss","[6]; cynomolgus monkey, in vivo, 1 mg/kg",44 µg/mL
same,"mean Cmax,ss","[6]; cynomolgus monkey, in vivo, 50 mg/kg",3235 µg/mL
same,GCs in cortical B-cell areas of the spleen and lymphatic tissues,[6]; post-mortem histological and immuno-histological evaluation,decrease
same,"Cmax margin: cynomolgus Cmax,ss at NOAEL versus expected human Cmax",[6]; proposed intravenous regimen,24 fold
same,inflection point in the PK profiles (drop of CD40 saturation),CD40 [7],about 10 μg/mL
same,plasma concentration at which CD40 occupancy completely prevented recall antibody responses,CD40 [8]; at the time of the second KLH vaccination,> 40 µg/mL
same,response to the third KLH,CD40 [8]; once mAb1 was cleared,full memory antibody response
same,EBV control in vitro,[9],does not impair
same,CD3+ T cell counts,[9]; [13],did not had any effect
same,CD19+ B cell counts,[9]; [13],decrease
same,organ toxicities,[10],did not reveal any significant organ toxicities
same,thromboembolic events,[10],no evidence of thromboembolic events
same,effect on platelet aggregation,platelet aggregation,mild inhibitory effects
same,induction of platelet aggregation responses,platelet aggregation,does not induce
same,ADCC,whole blood cultures,no ADCC
same,CD3+ T cell proliferation,[11]; [14],no reducing effect
same,CD4+ T cell proliferation,[11]; [14],no decreasing effect
same,CD4+ T cell proliferation,[11]; priming only phase,slight decline
